Entries after “also recorded” stand apart in the source; their conditions may differ. Read-outs that look alike come from different tables or passages of the source.
Tests used:
[1] = Tissue distribution of NCA N-(3-[^18 F]fluoropropyl)spiroperidol in mice after butaclamol pretreatment; type: in vivo, female albino mice (BNL strain)
Experimental: Tissue Distribution of NCA N-(3-[^ 18 F]fluoropropyl)spiroperidol in Mice
Female albino mice (BNL strain), 22-27 g, were injected in a lateral tail vein with 24-85 μCi of N-(3-[^18 F]fluoropropyl)spiroperidol in 100 μl of isotonic saline solution.
Mice were pretreated with 2 mg/kg, i.v., of either (-)butaclamol (-), or
(+)butaclamol (+). The mice were killed by cervical dislocation and
decapitation at 5, 60 and 120 min after injection. The dissected tissues
were blotted to remove adhering blood and placed in tared counting vials.
A sample of blood was obtained from the trunk immediately after
decapitation. The entire tail was counted to verify the patency of the
tail vein injection. All samples were counted and weighed, and the
activity expressed as percent of injected dose per organ or percent of
injected dose per gram of tissue.

[2] = Metabolic stability of N-(3-[^18 F]fluoropropyl)spiroperidol in mouse brains; type: in vivo, female albino mice (BNL strain); details: for Percent Recovery of Total ^18 F Applied to C-18 Sep-Pak, H2O Eluate / Percent Recovery of Total ^18 F Applied to C-18 Sep-Pak, MeOH Eluate / Percent Recovery of Total ^18 F Applied to C-18 Sep-Pak, NaOH Eluate / Percent of ^18 F in MeOH as N-(3-[^18 F]fluoropropyl)spiroperidol / remaining at 1 h: 1 hr; for remaining at 1 h: mouse, brain, iv, read-out: Percent of Unchanged N-(3-[^18 F]fluoropropyl)spiroperidol
Experimental: Metabolic Stability of N-(3-[^18 F]fluoropropyl)spiroperidol in Mouse Brains
Three female albino mice (BNL strain), 27-30 g, were injected in a lateral tail vein with […] of N-(3-[^18 F]fluoropropyl)spiroperidol in 100 μl of isotonic saline solution. At 1 hr after injection, the mice were killed by cervical dislocation. The brain was rapidly removed, homogenized either in a mixture of 2 ml of CH3 OH and 4 ml of 0.4M HClO4, or in 2 ml of CH3 OH alone. The samples were centrifuged,and the CH3 OH fractions (or the entire supernants in the case of CH3 OH alone) were analyzed for unchanged N-(3-[^18 F]fluoropropyl)spiroperidol [Arnett et al., Life Sci., 36, 1359-1366 (1985)] and analyzed by HPLC (C18 column, 4.5×250 mm, CH3 OH:0.2N NH4 CO2 H (90:10), 1.5 ml/min).
^a The precipitates were separated without further washings.
^b The precipitates were separated and washed with MeOH--HClO4

[3] = Baboon plasma analyses: blood kinetics and metabolism; type: in vivo, baboon (Papio anubis)
Experimental: Baboon Plasma Analyses: Blood was sampled from the femoral artery at initial intervals of 5 sec. Aliquots of plasma were counted to determine the total plasma radioactivity clearance curve. Representative samples (Table 6) were also analyzed for unchanged N-(3-[^18 F]fluoropropyl)spiroperidol.
The baboon blood total plasma radioactivity clearance curve following injection of NCA N-(3-[^18 F]fluoropropyl)spiroperidol is depicted in FIG. 1. The blood clearance was very rapid. The appearance of metabolites in the blood was also rapid (Table 6). At 10 min after injection 68% of plasma radioactivity was due to unchanged N-(3-[^18 F]fluoropropyl)spiroperidol.
*Plasma samples were extracted with MeOH--0.4M HClO4

dopamine receptors [4] = assay: PET baboon studies: brain kinetics in striatum and cerebellum
Description: A young adult (11 kg) female baboon (Papio anubis) was anesthetized initially with ketamine and subsequently maintained under halothane/nitrous oxide anesthesia for two PETT studies as described in the Arnett et al. paper referenced in Example 7. […] PET scans were made continually for 4 hr from the time of radioisotope injection. Regions of interest corresponding to the striata and cerebellum were selected.

dopamine receptors [5] = assay: Affinity for dopamine receptors; type: binding
dopamine receptors [6] = assay: Uptake in the brain and radiation burden (general statement); details: in vivo
[7] = (+)-butaclamol pretreatment, 5 min
[8] = (+)-butaclamol pretreatment, 60 min
[9] = (+)-butaclamol pretreatment, 120 min
[10] = (-)-butaclamol pretreatment, 5 min
[11] = (-)-butaclamol pretreatment, 60 min
[12] = (-)-butaclamol pretreatment, 120 min
[13] = mouse brain, 2X MeOH-HClO4 (washed again)
[14] = mouse brain, MeOH-HClO4 extraction, no further washings
[15] = baboon plasma, 0.67 min after injection
[16] = baboon plasma, 4.0 min after injection
[17] = baboon plasma, 10 min after injection
[18] = baboon plasma, 30 min after injection
[19] = baboon plasma, 120 min after injection
[20] = baboon, (-)-butaclamol pretreatment

SMILES: O=C(CCCN1CCC2(CC1)C(=O)N(CCC[18F])CN2c1ccccc1)c1ccc(F)cc1 [N-(3-[^18 F]fluoropropyl)spiroperidol]
- Cerebellum, % injected dose [1, 7]: 0.11 (0.08-0.14) %/organ
- Striatum, % injected dose [1, 7]: 0.051 %/organ
- Whole Brain, % injected dose [1, 7]: 0.79 (0.57-1.00) %/organ
- Cerebellum, % injected dose [1, 8]: 0.019 (0.013-0.025) %/organ
- Striatum, % injected dose [1, 8]: 0.013 (0.009-0.018) %/organ
- Whole Brain, % injected dose [1, 8]: 0.16 %/organ
- Cerebellum, % injected dose [1, 9]: 0.012 %/organ
- Striatum, % injected dose [1, 9]: 0.010 %/organ
- Whole Brain, % injected dose [1, 9]: 0.097 %/organ
- Cerebellum, % injected dose [1, 10]: 0.24 (0.13-0.45) %/organ
- Striatum, % injected dose [1, 10]: 0.084 (0.068-0.099) %/organ
- Whole Brain, % injected dose [1, 10]: 1.1 (0.9-1.4) %/organ
- Cerebellum, % injected dose [1, 11]: 0.040 (0.032-0.048) %/organ
- Striatum, % injected dose [1, 11]: 0.089 %/organ
- Whole Brain, % injected dose [1, 11]: 0.67 (0.59-0.77) %/organ
- Cerebellum, % injected dose [1, 12]: 0.028 (0.023-0.032) %/organ
- Striatum, % injected dose [1, 12]: 0.14 (0.11-0.17) %/organ
- Whole Brain, % injected dose [1, 12]: 0.56 (0.44-0.63) %/organ
- Percent Recovery of Total ^18 F Applied to C-18 Sep-Pak, H2O Eluate [2, 13]: 11%
- Percent Recovery of Total ^18 F Applied to C-18 Sep-Pak, MeOH Eluate [2, 13]: 81%
- Percent Recovery of Total ^18 F Applied to C-18 Sep-Pak, NaOH Eluate [2, 13]: 3.1%
- Percent of ^18 F in MeOH as N-(3-[^18 F]fluoropropyl)spiroperidol [2, 13]: 94%
- Percent Recovery of Total ^18 F Applied to C-18 Sep-Pak, MeOH Eluate ([2]; mouse brain, MeOH Alone): 65%
- Percent of ^18 F in MeOH as N-(3-[^18 F]fluoropropyl)spiroperidol ([2]; mouse brain, MeOH Alone): 97%
- Percent Recovery of Total ^18 F Applied to C-18 Sep-Pak, H2O Eluate [2, 14]: 4.2%
- Percent Recovery of Total ^18 F Applied to C-18 Sep-Pak, MeOH Eluate [2, 14]: 73%
- Percent Recovery of Total ^18 F Applied to C-18 Sep-Pak, NaOH Eluate [2, 14]: 1.3%
- Percent of ^18 F in MeOH as N-(3-[^18 F]fluoropropyl)spiroperidol [2, 14]: 94%
- Stability to metabolic transformation in the central nervous system ([2]; mouse brain, one hour): very stable to metabolic transformation in the central nervous system
- remaining at 1 h ([2]; 2X MeOH-HClO4 (washed again)): 76%
- remaining at 1 h ([2]; MeOH Alone): 62%
- remaining at 1 h ([2]; MeOH-HClO4 extraction, no further washings): 69%
- Blood / total plasma radioactivity clearance ([3]; baboon): very rapid; also recorded: rapid
- Total recovery of ^18 F applied to C-18 Sep-pak ([3]; baboon plasma samples): 90-103%
- % Recovery of Total ^18 F Applied to C-18 Sep-Pak, H2O Eluate [3, 15]: 8%
- % Recovery of Total ^18 F Applied to C-18 Sep-Pak, MeOH Eluate [3, 15]: 93%
- % Recovery of Total ^18 F Applied to C-18 Sep-Pak, NaOH Eluate [3, 15]: 2%
- % of ^18 F in MeOH as N-(3-[^18 F]fluoropropyl)spiroperidol [3, 15]: 98%
- % Recovery of Total ^18 F Applied to C-18 Sep-Pak, H2O Eluate [3, 16]: 10%
- % Recovery of Total ^18 F Applied to C-18 Sep-Pak, MeOH Eluate [3, 16]: 83%
- % Recovery of Total ^18 F Applied to C-18 Sep-Pak, NaOH Eluate [3, 16]: 4%
- % of ^18 F in MeOH as N-(3-[^18 F]fluoropropyl)spiroperidol [3, 16]: 99%
- % Recovery of Total ^18 F Applied to C-18 Sep-Pak, H2O Eluate [3, 17]: 17%
- % Recovery of Total ^18 F Applied to C-18 Sep-Pak, MeOH Eluate [3, 17]: 71%
- % Recovery of Total ^18 F Applied to C-18 Sep-Pak, NaOH Eluate [3, 17]: 6%
- % of ^18 F in MeOH as N-(3-[^18 F]fluoropropyl)spiroperidol [3, 17]: 96%
- % Recovery of Total ^18 F Applied to C-18 Sep-Pak, H2O Eluate [3, 18]: 31%
- % Recovery of Total ^18 F Applied to C-18 Sep-Pak, MeOH Eluate [3, 18]: 45%
- % Recovery of Total ^18 F Applied to C-18 Sep-Pak, NaOH Eluate [3, 18]: 14%
- % of ^18 F in MeOH as N-(3-[^18 F]fluoropropyl)spiroperidol [3, 18]: 90%
- % Recovery of Total ^18 F Applied to C-18 Sep-Pak, H2O Eluate [3, 19]: 49%
- % Recovery of Total ^18 F Applied to C-18 Sep-Pak, MeOH Eluate [3, 19]: 30%
- % Recovery of Total ^18 F Applied to C-18 Sep-Pak, NaOH Eluate [3, 19]: 18%
- % of ^18 F in MeOH as N-(3-[^18 F]fluoropropyl)spiroperidol [3, 19]: 74%
- Appearance of metabolites in the blood ([3]; in vivo): rapid
- remaining at 40 s ([3]; in vivo, iv, baboon plasma, 0.67 min after injection, read-out: % of Unchanged N-(3-[^18 F]fluoropropyl)spiroperidol): 91%
- remaining at 4 min ([3]; in vivo, iv, baboon plasma, 4.0 min after injection, read-out: % of Unchanged N-(3-[^18 F]fluoropropyl)spiroperidol): 82%
- remaining at 10 min ([3]; in vivo, iv, baboon plasma, 10 min after injection, read-out: % of Unchanged N-(3-[^18 F]fluoropropyl)spiroperidol): 68%
- remaining at 0.5 h ([3]; in vivo, iv, baboon plasma, 30 min after injection, read-out: % of Unchanged N-(3-[^18 F]fluoropropyl)spiroperidol): 41%
- remaining at 2 h ([3]; in vivo, iv, baboon plasma, 120 min after injection, read-out: % of Unchanged N-(3-[^18 F]fluoropropyl)spiroperidol): 22%
- Striatal accumulation of radioactivity, blocking by (+)-butaclamol (dopamine receptors [4]; (+)-butaclamol pretreatment, species not given): blocked stereoselectively by (+)-butaclamol
- Radioactivity in the cerebellum after first few minutes (dopamine receptors [4]; [20]): declined rapidly in the cerebellum
- Radioactivity in the striatum after first few minutes (dopamine receptors [4]; [20]): increasing for up to 4 hrs in the striatum
- Influx into striatum and cerebellum (dopamine receptors [4]; baboon, (-)-butaclamol pretreatment, first few minutes): nearly equal for the first few minutes
- Affinity for dopamine receptors (dopamine receptors [5]): extremely high affinity for dopamine receptors
- Radiation burden (dopamine receptors [6]): reduced radiation burden
- Uptake and retention in the brain (dopamine receptors [6]): enhanced uptake and retention in the brain
